Data: patent US20190201431A1, “EX VIVO METHODS OF INDUCING IDO EXPRESSION IN ANTIGEN PRESENTING CELLS USING A COMPOUND SELECTED FROM THE GROUP CONSISTING OF AZACYTIDINE, AND DECITABINE” (IDOGEN AB, priority 2016, published 2019)

How the values were obtained:
[1] = test system: IDO1 gene expression in THP-1 cells; assay: Induction of IDO1 in THP-1 cells (RT-qPCR); assay type: cell-based, human; details: 96 hours; for concentration at which the highest level of IDO induction was observed: tested 0.1-10 micromolar; for increase of IDO1 gene expression (maximum over tested concentrations): compound alone
Protocol: THP-1 cells were harvested from appropriate number of T75 flasks. Cells were counted in a Bürker chamber, stained with 0.4% Trypan Blue. The appropriate number of cells for each experiment were transferred to a new tube and centrifuged at 1200 rpm, 5 min at room temperature (RT). The supernatant was discarded and fresh RPMI with 5% FBS were added to get a cell concentration of 2×10^5 cells/mL. The compound was added to the five separate wells in 6-well plates such that five different final concentrations were obtained after adding the cells. A control was added to one well in the 6-well plate to which cells were added. 1×10^6 cells per well were seeded out to achieve a total volume of 5 mL per well. The cells were incubated at 37° C. in 5% CO2 for 96 hours. After 96 hours the assay was stopped and the cells were lysed for the isolation of RNA.
Total RNA was extracted from THP-1 cells using the RNA RNeasy Mini extraction kit (Qiagen), according to the manufacturer's instructions. A SuperScript® VILO™ RT-kit (Thermo Fisher) was used to reverse transcribe 1 μg of total RNA to cDNA and qPCR was performed. The primers used for amplification of the human IDO1 gene were 5′-[…]-3′ (forward; SEQ ID No. 1) and 5′-[…]-3′ (reverse; SEQ ID No. 2). The primers used for amplification of the endogenous reference gene for human HPRT1 were 5′-[…]-3′ (forward; SEQ ID No. 3) and 5′-[…]-3′ (reverse; SEQ ID No. 4). In brief, RT-qPCR was performed in 20 μl reaction, consisting 10 μl PowerUp SYBR Green Master Mix, 0.5 μM of each primer, 4 μl diluted cDNA for amplification of IDO1 and 1.5 μl diluted cDNA for amplification of HPRT1. An iCycler iQ real-time detection system (Stratagene, Mx3000P, La Jolla, Calif., USA) with the following thermal profile: UDG incubation at 50° C. for 2 min, then denaturation at 95° C. for 5 min, followed by 45 cycles at 94° C. for 15 s, 58° C. for 30 s, and 60° C. for 30 s, was used to perform thermocycling and real-time detection of PCR products. After amplification a melting curve analysis was performed. The RT-qPCR experiments were always run in triplicate. IDO1 was normalised to the geometric means of two HPRT1 reference gene, using the ΔCt method. Within-group comparisons were normalized to one control sample, using the ΔΔCt method.

naïve CD4+ CD25− T cells = assay: Conversion of CD4+CD25− T cells into CD4+FoxP3+ Tregs in vitro; assay type: cell-based
Protocol: To assess the effect of decitabine on the generation of Tregs, naïve CD4+ CD25− T cells were cultured with mitomycin C treated APCs plus IL-2, TGFβ and anti-CD3 in the presence or absence of decitabine and numbers of CD4^+FoxP3^+ Tregs were determined by FACS after 72 h. The RNA was isolated from cell lysate, and reverse transcribed to cDNA for RT-qPCR analysis using Taqman primer probes. Expression of genes encoding Foxp3 was normalized to HPRT expression and was calibrated relative to vehicle group.

[2] = test system: collagen-induced arthritis in DBA/1 mice; assay: Treatment of collagen-induced arthritis in vivo; details: 1 mg/kg for 4 days from day of arthritis onset, scored 10 days, vs vehicle (FIG. 3, P<0.05)
Protocol: DBA/1 mice were immunized with bovine type II collagen emulsified in complete Freund's adjuvant. The mice were treated with decitabine (1 mg/kg) for 4 days, starting on the day of arthritis onset. Treatment was then stopped. Negative controls received vehicle alone. Clinical scores were monitored for 10 days following onset of arthritis. A clinical scoring system was used as follows. Arthritis severity was scored by an experienced non-blinded investigator as follows: 0=normal, 1=slight swelling and/or erythema, 2=pronounced swelling, 3=ankylosis. All four limbs were scored, giving a maximum possible score of 12 per animal.

SMILES | concentration at which the highest level of IDO induction was observed [1] [µM] | IDO1 expression (fold change) ([1]; azacytidine 0.1 micromolar, vs H2O:HAc control) | IDO1 expression (fold change) ([1]; azacytidine 0.3 micromolar, vs H2O:HAc control) | IDO1 expression (fold change) ([1]; azacytidine 1 micromolar, vs H2O:HAc control) | IDO1 expression (fold change) ([1]; azacytidine 3 micromolar, vs H2O:HAc control) | IDO1 expression (fold change) ([1]; azacytidine 10 micromolar, vs H2O:HAc control) | increase of IDO1 gene expression (maximum over tested concentrations) ([1]; 0.1-10 micromolar) | relative expression of the Foxp3 gene (RT-qPCR) (naïve CD4+ CD25− T cells; normalized to HPRT, relative to vehicle group, vs control "nil" (FIG. 4C)) | frequencies of CD4+FoxP3+ Tregs (FACS) (naïve CD4+ CD25− T cells; with mitomycin C treated APCs, IL-2, TGFβ, anti-CD3, after 72 h, vs control "nil" (FIG. 4B)) | dose dependence of IDO1 gene expression ([1]; 0.1-10 micromolar) | IDO1 expression (fold change) ([1]; decitabine 0.1 micromolar, vs DMSO control) | IDO1 expression (fold change) ([1]; decitabine 0.3 micromolar, vs DMSO control) | IDO1 expression (fold change) ([1]; decitabine 1 micromolar, vs DMSO control) | IDO1 expression (fold change) ([1]; decitabine 3 micromolar, vs DMSO control) | IDO1 expression (fold change) ([1]; decitabine 10 micromolar, vs DMSO control) | disease severity (mean clinical score) [2]
Nc1ncn([C@@H]2O[C@H](CO)[C@@H](O)[C@H]2O)c(=O)n1 [azacytidine, 4-Amino-1-(β-D-ribofuranosyl)-1,3,5-triazin-2(1H)-one] | 1 | 0.5 | 1.2 | 23 | 6 | 8.6 | up to 23 fold | – | – | – | – | – | – | – | – | –
Nc1ncn([C@H]2C[C@H](O)[C@@H](CO)O2)c(=O)n1 [decitabine, 4-Amino-1-(2-deoxy-β-D-ribofuranosyl)-1,3,5-triazin-2(1H)-one] | 10 | – | – | – | – | – | up to 101 fold | increased in a dose-dependent manner | increased in a dose-dependent manner | a dose-related response was observed | 6 | 16.4 | 40 | 87 | 101 | successful in reducing disease severity
